Reference: patent US20030113369A1, “Liposomes with enhanced circulation time and method of treatment” (priority 1991, published 2003)
Entries after “also recorded” stand apart in the source; their conditions may differ. Counter-ions that a name gives are not always drawn.

How the values were obtained:
J-6456 lymphoma [1] = assay: Tissue distribution of doxorubicin, subcutaneous tumor; type: in vivo, mice; conditions: heart, muscle, tumor at 4, 24, 48 hours; 10 mg/kg IV
Description: That liposome delivery to the tumor is required for selective drug targeting can be seen from the study reported in Example 12. Here mice were inoculated subcutaneously with the J-6456 lymphoma which formed a solid tumor mass of about 1 cm^3 after one-two weeks. The animals were then injected either with free doxorubicin or doxorubicin loaded into PEG-liposomes at a dose of 10 mg drug per kg body weight. The tissue distribution (heart, muscle, and tumor) of the drug was then assayed at 4, 24, and 48 hours after drug administration.
Two groups of twelve mice were injected subcutaneously with 10^6 J-6456 tumor cells. After 14 days the tumors had grown to about 1 cm^3 in size in the subcutaneous space and the animals were injected IV (tail vein) with 10 mg/kg doxorubicin as free drug (group 1) or encapsulated in PEG liposomes (group 2). At 4, 24, and 48 hours after drug injection, four animal in each group were sacrificed, and sections of tumor, heart, and muscle tissue were excised. Each tissue was weighed, then homogenized and extracted for determination of doxorubicin concentration using a standard florescence assay procedure Gabizon, 1989). The total drug measured in each homogenate was expressed as μg drug per gram tissue.

C-26 colon carcinoma [2] = assay: Tumor treatment, subcutaneous colon carcinoma; type: in vivo, mice; conditions: for survival of the animals at 120 days following tumor implantation: 6 mg/kg on days 1, 8 and 15, seven animals per group; for tumor growth compared with the saline control: IV on days 1, 8 and 15, FIG. 15A
Description: Vesicle-forming lipids containing PEG-PE, PG, PHEPC, and cholesterol and α-TC in a mole ratio of 0.15:0.3:1.85:1:0.2 were dissolved in chloroform to a final lipid concentration of 25 μmol phospholipid/ml. The lipid mixture was dried into a thin film under reduced pressure. […] The MLV suspension was frozen in a dry ice acetone bath and thawed three times and sized to 80-100 nm by extrusion as detailed above. An ammonium ion gradient was created substantially as described in Example 10. The liposomes were loaded with epirubicin, and free (unbound drug) removed also as described in Example 10 for doxorubicin. […] Epirubicin HCl and doxorubicin HCL, the commercial products, were obtained from the hospital pharmacy.
About 10^6 cells C-26 colon carcinoma cells were injected subcutaneously into three groups of 35 mice. The groups were subdivided into five 7-animal subgroups.
Each group was followed for 28 days. Tumor size was measured for each animal on days 5, 7, 12, 14, 17, 21, 24 and 28. The growth of the tumor in each subgroup (expressed as the mean tumor size of the individual animals) at each time point is plotted in FIG. 15A.
The same number of animals were inoculated with the same number of tumor cells as described above.

J-6456 lymphoma [3] = assay: Tumor treatment, survival after IP lymphoma implantation; type: in vivo, mice; conditions: 10 mg/kg IV
Description: A doxorubicin HCl solution to be used as the free drug control was obtained from a hospital pharmacy. A total of 30 mice were injected IP with 10^6 J-6456 lymphoma cells. The animals were divided into three 10-animal groups, each of which was injected IV with 0.4 ml of either saline vehicle, 10 mg/kg doxorubicin solution or the doxorubicin-loaded liposomes at 10 mg/kg. Each group was followed for 100 days for number of surviving animals. The percent survivors for each treatment group is plotted in FIG. 16.

[4] = Plasma kinetics of free and liposomal doxorubicin; conditions: dogs
Description: (§1) The PEG-PE lipids were formulated with hydrogenated soy bean PC(HSPC) and cholesterol, in a mole ratio of 0.15:1.85:1 (PEG-Dox).
(§2) A doxorubicin HCl solution (the marketed product, Free Dox) was obtained from the hospital pharmacy.
(§3) Free DOX, PEG-Dox and HPI-Dox were diluted to the same concentration (1.8 mg/ml) using unbuffered 5% glucose on the day of injection. Dogs were randomized into three groups (2 females, 1 male) and weighed. An 18 gauge Venflon IV catheter was inserted in a superficial limb vein in each animal. The drug and liposome suspensions were injected by quick bolus (15 seconds). Four ml blood samples were before injection and at 5, 10, 15, 30, 45 min, 1, 2, 4, 6, 8, 10, 12, 24, 48 and 72 hours post injection. In the liposome groups blood was also drawn after 96, 120, 144, and 168 hours. Plasma was separated from the formed elements of the whole blood by centrifugation and doxorubicin concentrations assayed by standard fluorescence techniques. The amount of doxorubicin remaining in the blood was expressed as a percentage of peak concentration of labeled drug, measured immediately after injection.

[5] = dog, in vivo
Description: as §1, §2, §3

C-26 colon carcinoma [6] = conditions: cited from earlier work
[7] = Multidose toxicity of doxorubicin: weight change and histopathology; type: in vivo, mice; conditions: four weekly 10 mg/kg, sacrificed day 29
Description: FIG. 20 is a plot of weight changes in normal Sabra male mice untreated (open circles) or treated with four weekly intravenous injections on days […] with a 10 mg/kg dose of either free doxorubicin (open triangles) or PEG liposomes with entrapped doxorubicin (open squares); and
Similar reduced toxicity results were obtained when free doxorubicin was compared with PEG liposomes with entrapped doxorubicin, in groups of mice receiving four weekly injections of 10 mg/kg doxorubicin on days 1, 8, 15 and 22.

C-26 colon carcinoma [8] = assay: Tumor treatment with conventional doxorubicin liposomes; type: in vivo, mice; conditions: 10 mg/kg on days 8, 15 and 22; FIG. 17
Description: Conventional doxorubicin liposomes (L-DOX) were prepared according to published methods (Gabizon, 1988). Briefly, a mixture of eggPG, Egg,PC, cholesterol and α-TC in a mole ratio of 0.3:1.4:1:0.2 was made in chloroform. The solvent was removed under reduced presssure and the dry lipid film hydrated with a solution of 155 mM NaCl containing 2-5 mg doxorubicin HCl. The resulting MLV preparation was down-sized by extrusion through a series of polycarbonate membranes to a final size of about 250 nm. The free (unentrapped) drug was removed by passing the suspension over a bed of Dowex resin. The final doxorubicin concentration was about […] lipid.
Three groups of 7 mice were inoculated subcutaneously with 10^5-10^6 C-26 colon carcinoma cells as detailed in Example 15. The animals were divided into three, 7-animal treatment groups, one of which receivd 0.5 ml of saline vehicle as a control. The other two groups were treated with doxorubicin either as a free drug solution or in the form of L-DOX liposomes at a dose of 10 mg/kg. The treatments were given on days 8, 15 and 22 after tumor cell inoculation. Tumor size was measured on the days treatments were given and day 28.

Blood biochemistry = type: in vivo, mice; conditions: pooled serum
Description: Blood chemistries were measured in groups of both male and female mice receiving the same dose and injection schedule of free or PEG-liposomes with entrapped epirubicin as above.

Maximum tolerated dose = assay: Maximum tolerated dose
Description: Solutions of free doxorubicin HCl, epirubicin HCl were obtained as above. PEG-liposome formulations containing either doxorubicin or epirubicin, at a drug concentration of 70-90 μg compound/μmole liposome lipid, were prepared as described in Example 10. Conventional liposomes (no PEG-derivatized lipid) were loaded with doxorubicin to a drug concentration of […] lipid using standard techniques.
Each of the five formulations was administered to 35 mice, at a dose between 10 and 40 mg drug/kg body weight, in 5 mg/kg increments, with five receiving each dosage.

[9] = system: syngeneic mammary carcinoma cells (MC2); conditions: cited from earlier work
J-6456 lymphoma [10] = assay: Tissue distribution of doxorubicin, ascites tumor; conditions: for Plasma: 10 mg/kg doxorubicin IV; for Plasma / Ascites Tumor (tumor & fluid) / Heart / Liver: value (SD); for Ascites Tumor (tumor & fluid) / Heart / Liver: 10 mg/kg
Description: Two groups of 15 mice were injected interperitoneally with 10^6 J-6456 lymphoma cells. The tumor was allowed to grow for one-two weeks at which time 5 ml of ascites fluid had accumulated. The mice were then injected IV with 10 mg/kg doxorubicin either in free drug form (group 1) or entrapped in PEG liposomes as described in Example 11 (group 2). Ascites fluid was withdrawn from three animals in each group at 1, 4, 15, 24 and 48 hours post treatment. The ascites tumor was further fractionated into cellular and fluid components by centrifugation (15 min. 5000 rpm). Free and liposome-bound drug in the supernatant was determined by passing the fluid through a Dowex 50-WX-4 resin, as above, to remove free drug. The doxorubicin concentrations in the ascites fluid, tumor cells, supernatant, and resin-treated supernatant were then determined, and from these values, μg doxorubicin/gram tissue was calculated.
In a similar experiment two groups of twelve mice were implanted IP with the J-6456 lymphoma and the tumor was allowed to establish as described above. Once the ascites tumor had reached about 5 ml, one group of animals was injected with 10 mg/kg free doxorubicin and the other group with 10 mg/kg doxorubicin entrapped in PEG liposomes. At 4, 24 and 48 hours post treatment ascites fluid and blood samples were withdrawn from four animals in each group and the animals were sacrificed. Sections of liver and heart tissue were excised from each animal, homogenized and drug concentration assayed as described above. Plasma was separated from whole blood by centrifugation and drug concentration assayed as stated above. Doxorubicin concentration in the ascites fluid was also measured. Plasma and ascites fluid levels are expressed as pg doxorubicin per ml and liver and heart tissue values as pg doxorubicin per gram tissue. The standard deviations for each measurement is shown in parentheses.

[11] = Survival at 120 days following a single injection
[12] = Multidose toxicity of epirubicin: weight change and heart histology; type: in vivo, mice
[13] = system: syngeneic MC2 mouse mammary carcinoma; assay: Tumor treatment, breast carcinoma; type: in vivo, C3H/He mice; conditions: 6 mg/kg IV on days 1, 8 and 15; FIG. 21
Description: Ten-week-old female C3H/He mice were randomized into three groups of 20 animals and each received bilateral subcutaneous implants of 10^5˜10^6 syngeneic MC2 mouse mammary carcinoma cells on day 0. Intravenous injections of 6 mg/kg of free epirubicin, PEG liposomes with entrapped epirubicin (6 mg/kg) or a saline control were given on days 1, 8 and 15. Weights of the animals were taken on days 0, 7, 14, 22 and 24.
Results of the study are plotted in FIG. 21, where mean tumor size for the three treatment groups is as indicated, expressed as mean tumor size (in mm^3×10^−1) for all three treatment groups. […] At day 24 the statistical confidence between the liposome and free drug groups is extremely high (+=9.9, p<0.0000001 using the Student's +tests).

## COc1cccc2c1C(=O)c1c(O)c3c(c(O)c1C2=O)C[C@@](O)(C(=O)CO)C[C@@H]3O[C@H]1C[C@H](N)[C@H](O)[C@H](C)O1.Cl [Free DOX, Doxorubicin HCl]
J-6456 lymphoma [1]
  selective drug accumulation in the tumor: No selective drug accumulation into the tumor occurred
C-26 colon carcinoma [2]
  survival of the animals at 120 days following tumor implantation: none
  tumor growth compared with the saline control: neither free doxorubicin nor free epirubicin at 6 mg/kg significantly suppressed tumor growth
J-6456 lymphoma [3]
  survival relative to the saline group: little improvement in survival over the saline group
[4]
  t1/2: 1.9 to 3.3 h
[5]
  AUC: 7.1 to 10.0 mg/L
  clearance: 10 to 15 mL/min
[5]; iv
  Kinetic Pattern: Bi-exp.
  Peak Conc.: 0.4 to 2.2 mg/L
C-26 colon carcinoma [6]
  in vitro activity against C-26 colon carcinoma: show in vitro activity against this tumor
[7]
  histopathology, gonads: lack of follicular maturation and of spermatogenesis
  histopathology, heart: mild to moderate myolysis was seen in all (13) mice
  histopathology, kidney: advanced signs of nephrosis
  histopathology, lungs, adrenals, small bowel, pancreas, urinary bladder: No damage was observed
  histopathology, spleen: reversible atrophy of the red and white pulp
[7]; listed as free doxorubicin, HCl
  histopathology, liver: hematopoiesis foci were present in both groups; also recorded: microcytosis was also observed
C-26 colon carcinoma [8]
  tumor growth: suppressed tumor growth to a modest extent compared with the saline control
Blood biochemistry; females
  Albumin: 31 g/1
  Alk. Phos.: 162 μ/1
  Calcium: 2.9 mmol/1
  Chloride: 118 mmol/1
  Cholesterol: 4.7 mmol/1
  Creatinine: 123 μmol/1
  Glucose: 2.9 mmol/1
  Phosphorus: 3.4 mmol/1
  Sodium: 154 mmol/1
  Total protein: 57 g/1
  Urea: 12.5 mmol/1
  Uric acid: 350 μmol/1
Blood biochemistry; males
  Albumin: 21 g/1
  Alk. Phos.: 129 μ/1
  Bilirubin: 0 μmol/1
  Calcium: 1.6 mmol/1
  Chloride: 117 mmol/1
  Cholesterol: 6.0 mmol/1
  Creatinine: 37 μmol/1
  Glucose: 1.3 mmol/1
  Phosphorus: 5.2 mmol/1
  Sodium: 150 mmol/1
  Total protein: 39 g/1
  Urea: 12.4 mmol/1
  Uric acid: 333 μmol/1
Maximum tolerated dose; in mice, highest dose without death or dramatic weight loss within 14 days
  Maximum Tolerated Dose: 10 to 12 mg/kg
[9]
  in vitro sensitivity of MC2 cells: sensitive in vitro
J-6456 lymphoma [10]; 4 hours
  Tumor/Heart: 0.0052
  Plasma: 0.9 (0.0) μg/ml
  Ascites Tumor (tumor & fluid): 0.3 (0.1) μg/ml
  Heart: 5.7 (3.4) μg/gram
  Liver: 8.1 (1.4) μg/gram
J-6456 lymphoma [10]; 24 hours
  Tumor/Heart: 0.04
  Plasma: 0.0 µg/mL
  Ascites Tumor (tumor & fluid): 0.1 (0.1) μg/ml
  Heart: 2.5 (0.3) μg/gram
  Liver: 6.2 (4.8) μg/gram
J-6456 lymphoma [10]; 48 hours
  Tumor/Heart: 0.266
  Plasma: 0.0 µg/mL
  Ascites Tumor (tumor & fluid): 0.4 (0.3) μg/ml
  Heart: 1.5 (0.6) μg/gram
  Liver: 6.1 (3.6) μg/gram

## COc1cccc2c1C(=O)c1c(O)c3c(c(O)c1C2=O)C[C@@](O)(C(=O)CO)C[C@@H]3O[C@H]1C[C@H](N)[C@@H](O)[C@H](C)O1 [EPI, Epirubicin HCl]
[11]; 3 mg/kg
  Surviving mice at 120 days: 5/5
[11]; 6 mg/kg
  Surviving mice at 120 days: 5/5
[11]; 9 mg/kg
  Surviving mice at 120 days: 2/5
[11]; 12 mg/kg
  Surviving mice at 120 days: 0/5
[11]; 15 mg/kg
  Surviving mice at 120 days: 0/5
[11]; 120 days
  dose at which 2/5 animals died: 9 mg/kg
C-26 colon carcinoma [2]
  survival of the animals at 120 days following tumor implantation: none
  tumor growth compared with the saline control: neither free doxorubicin nor free epirubicin at 6 mg/kg significantly suppressed tumor growth
C-26 colon carcinoma [2]; days 3, 10, 17 or days 10, 17, 24, 6 mg/kg (liposomes also 9 mg/kg), FIGS. 15B, 15C, 18, listed as free epirubicin, HCl
  tumor response, delayed treatment: only a modest retardation in the rate of tumor growth; also recorded: no tumor regression was seen
C-26 colon carcinoma [6]
  in vitro activity against C-26 colon carcinoma: show in vitro activity against this tumor
Maximum tolerated dose; mouse, in vivo
  MTD at 14 days: 10 mg/kg
[12]; three weekly injections from day 3, 26-day period, C-26 tumor-bearing mice, FIG. 19
  weight change: lost weight rapidly starting about day 10
[12]; three weekly injections, 6 mg/kg free, 6 or 9 mg/kg liposomal
  histological examination of heart muscle tissue: significant cardiomyopathy was observed
[13]
  tumor growth: the tumor grows quickly
[9]
  in vitro sensitivity of MC2 cells: sensitive in vitro
